Test results as given in patent publication US10856562B2, “Flavor composition and edible compositions containing same” (MARS, INCORPORATED, priority 2013, dated 2020).
Square brackets hold non-standard residues; d marks the D form. Ends that are not written are not given here. pGlu = O=C1CC[C@@H](C(=O)O)N1

System: panelists
Assay: Attribute perception scores of flavor enhancers in solution (Example 6)
Type: in vivo, human
Design: key to Metallic / Numbing / Atringent / Salt / Sweet / Sour / Bitter / Umami / Sour, mean evaluation score in solution / Numbing, mean evaluation score in solution / Astringent / Umami FF: 15-point intensity scale, 0 = none, 15 = very strong
Conditions: for Astringent, mean evaluation score in solution / Bitter, mean evaluation score in solution / Flinty/Mineral, mean evaluation score in solution / Metallic, mean evaluation score in solution / Numbing, mean evaluation score in solution / Salt, mean evaluation score in solution / Sour, mean evaluation score in solution / Sweet, mean evaluation score in solution / Umami FF, mean evaluation score in solution / Umami, mean evaluation score in solution / Atringent / Bitter / Metallic / Mineral/Flinty / Numbing / Salt / Sour / Sweet / Umami / Umami/brothy: 15-point scale; for Atringent / Bitter / Metallic / Mineral/Flinty / Numbing / Salt / Sour / Sweet / Umami / Umami/brothy: solution
Method: Descriptive attributes (e.g., taste, flavor and chemical feeling factors) of three use levels of pGlu-Cys (FE-35), pGlu-Cys-Gly (FE-36), pGlu-Cys-Cys (FE-37), pGlu-Cys-Val (FE-38) and pGlu-Val-Cys (UE-30) flavor composition peptides were determined. The three use levels were as follows: 1.0 ppb, 10.0 ppb and 100.0 ppb.
Data was collected for the attributes of the product in-mouth for the use levels according to the following protocol: • The samples were analyzed for flavor by six to nine members of a panel, trained and experienced in flavor evaluation using the Spectrum™ method. Samples were evaluated across multiple panel sessions. • The strength of each attribute was rated on a 15-point scale, where 0=none and 15=very strong. • This scale incorporates the ability to use tenths of a point and therefore has the potential of 150 scale differentiations. • The scale may be expanded beyond 15 points to include extreme ratings if necessary.
A summary of the concentrations of NaCl, water and flavor composition peptides in the solution samples is described in table 24.
The panelists evaluated each sample for the attributes described by table 25.

[1] = 1.0 ppb in solution (NaCl, water)
[2] = 1.0 to 100 ppb, listed as UE 30
[3] = 10.0 ppb in solution (NaCl, water)
[4] = 100.0 ppb in solution (NaCl, water)

[pGlu]-Val-Cys [UE-30]
Astringent, mean evaluation score in solution [1]: 0.0
Bitter, mean evaluation score in solution [1]: 0.0
Flinty/Mineral, mean evaluation score in solution [1]: 0.4
Metallic, mean evaluation score in solution [1]: 0.0
Numbing, mean evaluation score in solution [1]: 0.0
Salt, mean evaluation score in solution [1]: 1.2
Sour, mean evaluation score in solution [1]: 0.0
Sweet, mean evaluation score in solution [1]: 0.0
Umami FF, mean evaluation score in solution [1]: 0.1
Umami, mean evaluation score in solution [1]: 0.0
Mineral/Flinty aromatic in solution as the concentration increases (1.0 to 100 ppb): increases
Salt perception level in solution as the concentration increases (1.0 to 100 ppb): increases slightly
Umami aromatic in solution as the concentration increases (1.0 to 100 ppb): shows no distinct pattern
Umami feeling factor in solution as the concentration increases (1.0 to 100 ppb): increases
Mineral/Flinty aromatic in solution as the concentration increases [2]: increase slightly
Salt perception level in solution as the concentration increases [2]: increase slightly
Astringent, mean evaluation score in solution [3]: 0.0
Bitter, mean evaluation score in solution [3]: 0.0
Flinty/Mineral, mean evaluation score in solution [3]: 0.8
Metallic, mean evaluation score in solution [3]: 0.0
Numbing, mean evaluation score in solution [3]: 0.0
Salt, mean evaluation score in solution [3]: 1.5
Sour, mean evaluation score in solution [3]: 0.0
Sweet, mean evaluation score in solution [3]: 0.0
Umami FF, mean evaluation score in solution [3]: 0.6
Umami, mean evaluation score in solution [3]: 0.4
Astringent, mean evaluation score in solution [4]: 0.0
Bitter, mean evaluation score in solution [4]: 0.7
Flinty/Mineral, mean evaluation score in solution [4]: 1.1
Metallic, mean evaluation score in solution [4]: 0.0
Numbing, mean evaluation score in solution [4]: 0.0
Salt, mean evaluation score in solution [4]: 1.8
Sour, mean evaluation score in solution [4]: 0.0
Sweet, mean evaluation score in solution [4]: 0.0
Umami FF, mean evaluation score in solution [4]: 2.1
Umami, mean evaluation score in solution [4]: 0.1
Atringent (Concentration 1, MAX): 0.0
Bitter (Concentration 1, MAX): 0.0
Metallic (Concentration 1, MAX): 0.0
Mineral/Flinty (Concentration 1, MAX): 0.5
Numbing (Concentration 1, MAX): 0.0
Salt (Concentration 1, MAX): 1.5
Sour (Concentration 1, MAX): 0.0
Sweet (Concentration 1, MAX): 0.0
Umami (Concentration 1, MAX): 0.5
Umami/brothy (Concentration 1, MAX): 0.0
Atringent (Concentration 1, MEAN): 0.0
Bitter (Concentration 1, MEAN): 0.0
Metallic (Concentration 1, MEAN): 0.0
Mineral/Flinty (Concentration 1, MEAN): 0.4
Numbing (Concentration 1, MEAN): 0.0
Salt (Concentration 1, MEAN): 1.2
Sour (Concentration 1, MEAN): 0.0
Sweet (Concentration 1, MEAN): 0.0
Umami (Concentration 1, MEAN): 0.1
Umami/brothy (Concentration 1, MEAN): 0.0
Atringent (Concentration 1, MIN): 0.0
Bitter (Concentration 1, MIN): 0.0
Metallic (Concentration 1, MIN): 0.0
Mineral/Flinty (Concentration 1, MIN): 0.0
Numbing (Concentration 1, MIN): 0.0
Salt (Concentration 1, MIN): 1.0
Sour (Concentration 1, MIN): 0.0
Sweet (Concentration 1, MIN): 0.0
Umami (Concentration 1, MIN): 0.0
Umami/brothy (Concentration 1, MIN): 0.0
Atringent (Concentration 10, MAX): 0.0
Bitter (Concentration 10, MAX): 0.0
Metallic (Concentration 10, MAX): 0.0
Mineral/Flinty (Concentration 10, MAX): 1.0
Numbing (Concentration 10, MAX): 0.0
Salt (Concentration 10, MAX): 2.0
Sour (Concentration 10, MAX): 0.0
Sweet (Concentration 10, MAX): 0.0
Umami (Concentration 10, MAX): 1.0
Umami/brothy (Concentration 10, MAX): 0.8
Atringent (Concentration 10, MEAN): 0.0
Bitter (Concentration 10, MEAN): 0.0
Metallic (Concentration 10, MEAN): 0.0
Mineral/Flinty (Concentration 10, MEAN): 0.8
Numbing (Concentration 10, MEAN): 0.0
Salt (Concentration 10, MEAN): 1.5
Sour (Concentration 10, MEAN): 0.0
Sweet (Concentration 10, MEAN): 0.0
Umami (Concentration 10, MEAN): 0.6
Umami/brothy (Concentration 10, MEAN): 0.4
Atringent (Concentration 10, MIN): 0.0
Bitter (Concentration 10, MIN): 0.0
Metallic (Concentration 10, MIN): 0.0
Mineral/Flinty (Concentration 10, MIN): 0.0
Numbing (Concentration 10, MIN): 0.0
Salt (Concentration 10, MIN): 1.0
Sour (Concentration 10, MIN): 0.0
Sweet (Concentration 10, MIN): 0.0
Umami (Concentration 10, MIN): 0.0
Umami/brothy (Concentration 10, MIN): 0.0
Atringent (Concentration 100, MAX): 0.0
Bitter (Concentration 100, MAX): 1.5
Metallic (Concentration 100, MAX): 0.0
Mineral/Flinty (Concentration 100, MAX): 1.5
Numbing (Concentration 100, MAX): 0.0
Salt (Concentration 100, MAX): 2.0
Sour (Concentration 100, MAX): 0.0
Sweet (Concentration 100, MAX): 0.0
Umami (Concentration 100, MAX): 3.0
Umami/brothy (Concentration 100, MAX): 0.5
Atringent (Concentration 100, MEAN): 0.0
Bitter (Concentration 100, MEAN): 0.7
Metallic (Concentration 100, MEAN): 0.0
Mineral/Flinty (Concentration 100, MEAN): 1.1
Numbing (Concentration 100, MEAN): 0.0
Salt (Concentration 100, MEAN): 1.8
Sour (Concentration 100, MEAN): 0.0
Sweet (Concentration 100, MEAN): 0.0
Umami (Concentration 100, MEAN): 2.1
Umami/brothy (Concentration 100, MEAN): 0.1
Atringent (Concentration 100, MIN): 0.0
Bitter (Concentration 100, MIN): 0.0
Metallic (Concentration 100, MIN): 0.0
Mineral/Flinty (Concentration 100, MIN): 0.8
Numbing (Concentration 100, MIN): 0.0
Salt (Concentration 100, MIN): 1.0
Sour (Concentration 100, MIN): 0.0
Sweet (Concentration 100, MIN): 0.0
Umami (Concentration 100, MIN): 1.5
Umami/brothy (Concentration 100, MIN): 0.0
